Experimental data as given in patent US4174407A, “Antiviral agent” (Sumitomo Chemical Company, Limited, priority 1978, dated 1979).
In brackets after ≈: the same amount, converted by molar mass. Where a name gives a salt, the structure may show the parent alone. Read-outs that look alike come from different tables or passages of the source.

Key:
[1] = tested on: herpes simplex type 1 (HF strain); assay: Tube dilution method, virus-induced cytopathic effect in tissue culture (antiviral MIC); assay type: cell-based; details: for MIC: read-out: Minimum virus growth inhibition concentration (MIC)
[2] = Cytotoxicity in KB cells by microscopic examination (MCC); details: human
[3] = Cytotoxicity in HeLa cells by microscopic examination (MCC); details: human
[4] = tested on: Influenza Ao PR/8; assay type: in vivo, ddY male mice; details: 7 days after infection, control 4.8
[5] = tested on: herpes simplex virus type 1 (HF strain); assay: Effects on herpeskeratitis, eye lotion in rabbits (cure period and toxicity); assay type: in vivo; details: 0.5% eye lotion in 1.4% polyvinyl alcohol, every two hours, five times a day, 7 days; rabbit eye
Method: (§1) Therapeutic effects were determined by using two experimental infections as follows.
The corneal epithelium of each eye of rabbit was anesthetized and scratched, then each eye was infected with herpes simplex virus type 1 (HF strain). One of each infected eyes was used for treatment with the compound A and the other was used for viral control. One half % eye lotion of the compound A in 1.4% polyvinyl alcohol was applied every two hours, five times a day during 7 days 12 hr. after virus infection. Each eye was daily examined and scored the lesion on the conjunctiva, cornea and the iris for 7 days. In this score 0 means normal and 4 means maximal severity. The eyes scratched but not infected with virus were similarly treated with compound A in parallel as toxicity control.

[6] = in vivo; details: mouse
[7] = tested on: Newcastle disease virus; details: Aigami et al., J. Med. Chem. 19, 536, 1976; cited from earlier work
[8] = tested on: influenza virus; assay: Antiviral activities on influenza virus (general statement)
[9] = tested on: herpes simplex virus type 1 HF strain; assay: Effects on herpesencephalitis, intracerebrally infected mice; assay type: in vivo; details: for Survival ratio (no. of survivors/no. of total mice): 21st day, control 0/10
Method: as §1
Mice were anesthetized with ether and were infected intracerabrally (i.c.) with 30 LD50 of herpes simplex virus type 1 HF strain. Infected mice were treated with various therapeutic schedules. The antiviral effects of the compound A was determined by comparing the number of survivors at 3 weeks after viral infection and the mean survival days of the drug-treatedand placebo-treated animals.
(a) Dose of administration
(b) Schedule of administration of each route was as follows, i.c. (intracerebrally): single administration simultaneously with virus infection p.o (per os): twice administration per day during 8.5 days from 4 hr. after virus infection s.c. (subcutaneously): twice administration per day during 8.5 days from 4 hr. after virus infection i.v. (intravenously): single administration at 3 hr. after virus infection
(c) The animals were examined for 21 days and deaths occuring were recorded.
(d) Survivors at 21st day.

[10] = tested on: herpes virus; assay: Antiviral activities on herpes virus (general statement)
[11] = tested on: DNA virus; details: general knowledge; cited from earlier work
[12] = host cells KB, 1000 TCD50, 72 hr, 37° C.

NC12CC3CC(CC(C3)C1)C2 [Amantadine HCl, amantadine hydrochloride, reference compound]
MIC ([1]; Human alphaherpesvirus 1, 72 h): 50 µg/mL
Minimum virus growth inhibition concentration (MIC) [1, 12]: 50 µg/mL
MCC at 72 h [2]: > 50 µg/mL
MCC at 72 h [3]: > 50 µg/mL
Lung Lesion Score ([4]; 10 mg/kg s.c., * P<0.05 (Student's t test)): 4.3
Lung Lesion Score ([4]; 25 mg/kg s.c., * P<0.05 (Student's t test)): 4.1
Lung Lesion Score ([4]; 50 mg/kg s.c., * P<0.05 (Student's t test)): 4.0

NC12CCCC3CC(CCC31)C2 (centres unmarked) [Compound A, 3-Amino-4-homoisotwistane hydrochloride]
cure period as compared with control [5]: did not prolong the cure period as compared with control
LD50 ([6]; iv): 32 mg/kg
LD50 ([6]; po): 300 mg/kg
MIC ([1]; Human alphaherpesvirus 1, host cells HeLa, 1000 TCD50, 72 hr, 37° C.): 5 µg/mL
Minimum virus growth inhibition concentration (MIC) [1, 12]: 5 µg/mL
MCC at 72 h [2]: 50 µg/mL
MCC at 72 h [3]: 50 µg/mL
antiviral effects on Newcastle disease virus [7]: antiviral effects on Newcastle disease virus
antiviral activities on influenza virus [8]: very strong antiviral activities
Lung Lesion Score ([4]; 7.5 mg/kg s.c., no significance mark): 4.6
Lung Lesion Score ([4]; 15 mg/kg s.c., * P<0.05 (Student's t test)): 4.0
Lung Lesion Score ([4]; 30 mg/kg s.c., * P<0.05 (Student's t test)): 4.2
Survival ratio (no. of survivors/no. of total mice) ([9]; 5 mg/kg i.c., single, simultaneously with virus infection): 7/10
Mean no. of survival days ([9]; 5 mg/kg i.c., single, simultaneously with virus infection, control 5.6): 7.2 days
Survival ratio (no. of survivors/no. of total mice) ([9]; 10 mg/kg i.v., single at 3 hr. after infection): 2/10
Mean no. of survival days ([9]; 10 mg/kg i.v., single at 3 hr. after infection, control 6.2): 8.0 days
Survival ratio (no. of survivors/no. of total mice) ([9]; 100 mg/kg p.o., twice per day during 8.5 days from 4 hr. after infection): 3/10
Mean no. of survival days ([9]; 100 mg/kg p.o., twice per day during 8.5 days from 4 hr. after infection, control 5.9): 7.8 days
Survival ratio (no. of survivors/no. of total mice) ([9]; 100 mg/kg s.c., twice per day during 8.5 days from 4 hr. after infection): 5/10
Mean no. of survival days ([9]; 100 mg/kg s.c., twice per day during 8.5 days from 4 hr. after infection, control 5.8): 7.6 days
antiviral effects on herpes virus and so on, compared with tromantadine ([10]; comparison with tromantadine): much superior to those of tromantadine
antiviral activities on herpes virus ([10]; general statement): very strong antiviral activities

CN(C)CCOCC(=O)NC12CC3CC(CC(C3)C1)C2 [Tromantadine, tromantadine]
MIC ([1]; Human alphaherpesvirus 1, host cells KB, 1000 TCD50, 72 hr, 37° C.): 25 µg/mL (≈ 89.2 µM)
MCC at 72 h [2]: > 50 µg/mL
anti DNA viral activities [11]: known to show an anti DNA viral activities
